These are literature values, as cited in US20050175959A1, “System for the controlled delivery of an active material to a dental site” (Coll Partners Ltd., priority 2000, published 2005).

For the data set the following is noted: in vivo.

`F` [fluoride]: the “acute lethal dose of fluoride (F)” value is listed as 33 mg F/Kg body weight and the chronic toxicity is 0.1 mg F/Kg.
